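Briefly, cells in 96-well plates were exposed to five compound concentrations for 48 h, and endpoints were estimated by linear interpolation. Definition used: TGI = concentration required for complete inhibition of growth.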

The values that follow come from PubChem BioAssay (NCI).

Some test systems named below: KM12 colon; HS 578T breast; ACHN renal; HL-60(TB) leukemia; MOLT-4 leukemia; OVCAR-8 ovarian; SF-295 CNS; A498 renal; UO-31 renal; HCT-116 colon; RPMI-8226 leukemia; OVCAR-5 ovarian; MALME-3M melanoma; DU-145 prostate; MCF7 breast; CCRF-CEM leukemia; IGROV1 ovarian; K-562 leukemia; NCI-H522 lung.
Assay in all cases: NCI-60 cell line screen, 48 h

As to `C=CCn1c(-c2ccc(Cl)cc2)csc1=Nc1ccccc1OC`, the TGI in the test on KM12 colon was over 100 µM; with HS 578T breast, over 100 µM; in the test on ACHN renal, over 100 µM; in the test on HL-60(TB) leukemia it was 86.3 µM; with MOLT-4 leukemia, 14.9 µM; in the test on OVCAR-8 ovarian, over 100 µM. Further, the TGI was over 79.8 µM in the test on SF-295 CNS; over 100 µM in the test with A498 renal; over 100 µM with UO-31 renal; over 100 µM in the test with HCT-116 colon; over 100 µM in the test on RPMI-8226 leukemia; over 100 µM with OVCAR-5 ovarian. Further, the TGI was over 100 µM in the test with MALME-3M melanoma; over 100 µM in the test on DU-145 prostate; over 100 µM in the test with MCF7 breast; over 100 µM in the test on CCRF-CEM leukemia; over 100 µM in the test with IGROV1 ovarian; 19.4 µM in the test on K-562 leukemia.
Regarding `Cc1cc(N(CCC#N)CCC#N)ccc1/C(N=Nc1ccc([N+](=O)[O-])cc1)=N\NC(=O)c1ccccc1`, the TGI was 44.7 µM in the test with NCI-H522 lung; over 100 µM in the test with KM12 colon; 64.5 µM with HS 578T breast; over 100 µM in the test on ACHN renal; over 100 µM in the test with HL-60(TB) leukemia; over 100 µM in the test with MOLT-4 leukemia. The TGI with OVCAR-8 ovarian is over 100 µM; in the test with SF-295 CNS it was over 100 µM; in the test with A498 renal, 74 µM; in the test with UO-31 renal, over 100 µM; in the test with HCT-116 colon, over 100 µM; with RPMI-8226 leukemia, over 100 µM. In addition, the TGI in the test on OVCAR-5 ovarian, with MALME-3M melanoma, in the test with DU-145 prostate, in the test with MCF7 breast, in the test on CCRF-CEM leukemia and in the test on IGROV1 ovarian was over 100 µM throughout. Moreover, the TGI with K-562 leukemia was over 100 µM.
In the case of `CCOC(=O)c1nc2cc(C(F)(F)F)ccc2nc1Oc1ccc(F)cc1`, the TGI in the test with NCI-H522 lung, in the test with KM12 colon, in the test with HS 578T breast, with ACHN renal, with HL-60(TB) leukemia and in the test with MOLT-4 leukemia was over 100 µM throughout. Moreover, the TGI in the test with OVCAR-8 ovarian is over 100 µM; with SF-295 CNS, over 100 µM; in the test on A498 renal it was over 100 µM; in the test with UO-31 renal it was over 100 µM; in the test on HCT-116 colon, 64.2 µM; with RPMI-8226 leukemia, over 100 µM. For the same compound, the TGI in the test with OVCAR-5 ovarian, with MALME-3M melanoma, in the test on DU-145 prostate, in the test with MCF7 breast, in the test on CCRF-CEM leukemia and in the test on IGROV1 ovarian was over 100 µM throughout. The same compound returned a TGI in the test with K-562 leukemia of over 100 µM.
With `Nc1c2cc3ccc2nc2ccc(cc12)OCCOCCOCCOCCOCCOCCO3`, the TGI in the test with NCI-H522 lung, in the test on KM12 colon, with HS 578T breast, in the test with ACHN renal, with HL-60(TB) leukemia and with MOLT-4 leukemia was over 10 µM in each case. Moreover, the TGI in the test on OVCAR-8 ovarian, with SF-295 CNS, in the test on A498 renal, in the test with HCT-116 colon, with RPMI-8226 leukemia and in the test on OVCAR-5 ovarian was over 10 µM each time. In addition, the TGI in the test on MALME-3M melanoma, in the test on DU-145 prostate, in the test on MCF7 breast, in the test on CCRF-CEM leukemia, with IGROV1 ovarian and in the test on K-562 leukemia was over 10 µM throughout.
Consider `O=C1C(Cl)=C(NCCF)C(=O)c2ncccc21`, for which the TGI in the test with KM12 colon was 3.38 µM; in the test with HS 578T breast, 4 µM; with ACHN renal, 5.22 µM; in the test with HL-60(TB) leukemia, over 10 µM; in the test on MOLT-4 leukemia, 3.72 µM; in the test with OVCAR-8 ovarian, 4.55 µM. Also, the TGI was 3.21 µM with SF-295 CNS; over 10 µM in the test on A498 renal; 2.6 µM with UO-31 renal; 3.51 µM with HCT-116 colon; over 10 µM in the test with RPMI-8226 leukemia; 3.29 µM in the test on OVCAR-5 ovarian. Also, the TGI in the test with MALME-3M melanoma was 2.98 µM; with DU-145 prostate, 2.99 µM; in the test with MCF7 breast, 3.54 µM; with CCRF-CEM leukemia it was 0.806 µM; in the test with IGROV1 ovarian, 3.43 µM; in the test with K-562 leukemia it was 2.82 µM.
On to `COc1ccc(/C=C/C(=O)Oc2ccccc2OC)cc1`, for which the TGI in the test on NCI-H522 lung is over 72 µM; in the test with KM12 colon, 31.3 µM; in the test on HS 578T breast, over 89.6 µM; in the test with ACHN renal it was over 59.4 µM; in the test on HL-60(TB) leukemia, over 32.5 µM; in the test on MOLT-4 leukemia it was 3.44 µM. Moreover, the TGI in the test with OVCAR-8 ovarian is over 71.9 µM; in the test with SF-295 CNS, 10.7 µM; in the test with A498 renal, over 100 µM; in the test on UO-31 renal, over 100 µM; in the test on HCT-116 colon, 9.55 µM; with RPMI-8226 leukemia, 5.22 µM. Further, the TGI was 98.2 µM in the test on OVCAR-5 ovarian; over 100 µM in the test with MALME-3M melanoma; over 100 µM in the test on DU-145 prostate; over 100 µM in the test with MCF7 breast; 10.5 µM with CCRF-CEM leukemia; over 51.2 µM with IGROV1 ovarian. Besides, in the test on K-562 leukemia, the TGI was over 100 µM.
Take `COc1cc(OC)c(C2(c3c(OC(C)C)c(=O)c3=O)SCCCS2)cc1OC`: the TGI in the test with NCI-H522 lung, with KM12 colon, in the test with HS 578T breast, in the test on ACHN renal, in the test with HL-60(TB) leukemia and in the test on OVCAR-8 ovarian was over 100 µM in each case. In addition, the TGI in the test with SF-295 CNS, with A498 renal, with UO-31 renal, in the test with HCT-116 colon, with RPMI-8226 leukemia and with OVCAR-5 ovarian was over 100 µM in each case. The TGI with MALME-3M melanoma, in the test with DU-145 prostate, with MCF7 breast, with CCRF-CEM leukemia, with IGROV1 ovarian and in the test on K-562 leukemia was over 100 µM each time.
